Numbering of substitutions follows the chain as printed. Entries after “also recorded” stand apart in the source; their conditions may differ. Where two headings read alike, the source gives them in different places.
How the values were obtained:
[1] = molecular target: T1, wt SFV nsP1 (Semliki forest virus, UniProt P08411); assay: nsP1 enzymatic activity assay (m7GMP-nsP1 intermediate formation), wt
T1 sequence (P08411 1-537): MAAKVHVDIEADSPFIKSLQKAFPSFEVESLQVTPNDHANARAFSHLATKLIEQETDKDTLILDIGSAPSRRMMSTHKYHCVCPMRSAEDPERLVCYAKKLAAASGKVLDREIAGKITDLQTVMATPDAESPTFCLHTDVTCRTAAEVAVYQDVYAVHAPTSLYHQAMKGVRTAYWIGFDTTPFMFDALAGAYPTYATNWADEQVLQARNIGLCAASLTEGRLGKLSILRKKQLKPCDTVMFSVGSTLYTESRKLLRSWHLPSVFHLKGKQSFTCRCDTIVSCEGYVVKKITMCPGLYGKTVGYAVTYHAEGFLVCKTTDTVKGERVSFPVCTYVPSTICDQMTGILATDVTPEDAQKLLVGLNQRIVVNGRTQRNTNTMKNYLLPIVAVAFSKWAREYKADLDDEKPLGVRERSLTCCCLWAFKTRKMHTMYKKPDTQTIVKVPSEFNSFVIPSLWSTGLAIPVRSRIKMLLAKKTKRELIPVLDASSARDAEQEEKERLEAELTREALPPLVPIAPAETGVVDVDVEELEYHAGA

[2] = molecular target: T2, SFV nsP1 K231R+K300E (Semliki forest virus, UniProt P08411, K231R/K300E); assay type: biochemical; conditions: 0 to 1 mM, 10 μM SAM, normalized to untreated control
T2 sequence (P08411 1-537 K231R/K300E): T1 sequence (P08411 1-537) with K231R, K300E

[3] = tested on: rCHIKV mutants; assay: microbe, parasite or virus in culture; assay type: cell-based, Chikungunya virus; conditions: for Fold resistance: EC50 mutant/EC50 wt
[4] = tested on: SINV; assay: CPE reduction assay, SINV; conditions: VeroE6 cells, MOI 0.025
[5] = tested on: CHIKV; assay: CPE reduction assay, CHIKV
[6] = tested on: SFV; assay: CPE reduction assay, SFV
[7] = tested on: VeroE6 cells; assay: Cytotoxicity in uninfected cells (MTS/PMS) of the CPE reduction assay
[8] = molecular target: host enzyme SAH hydrolase; design: method as in PMID 26010585; conditions: in vitro; read-out: 50% inhibitory concentration, SAH hydrolase; cited from earlier work
[9] = Chikungunya virus, Vero C1008, read-out: Mean EC50 ± SD
[10] = Chikungunya virus, read-out: Mean EC50 ± SD
[11] = rCHIKV nsP1-G230R + nsP1-K299E + nsP3-*524R
[12] = rCHIKV nsP1-G230R + nsP1-K299E + nsP3-*524R, read-out: Mean EC50 ± SD
[13] = rCHIKV nsP1-G230R + nsP1-K299E, read-out: Mean EC50 ± SD
[14] = rCHIKV nsP1-R171Q, read-out: Mean EC50 ± SD

Nc1ncnc2c1ncn2[C@@H]1O[C@H](CSCC[C@H](N)C(=O)O)[C@@H](O)[C@H]1O [SAH, S-adenosylhomocysteine, reference compound]
Inhibition of m7GMP-nsP1 formation, dose response ([1]; 0 to 1 mM, 10 μM SAM): inhibited in a dose-dependent manner | Inhibition of m7GMP-nsP1 formation ([1]; 1 mM, 100-fold molar excess over SAM (10 μM SAM)): fully inhibited | Inhibition of mutant compared to wt SFV nsP1 [2]: inhibited by SAH to a similar extent; also recorded: inhibited by SAH to the same extent

O=c1cnn([C@@H]2O[C@H](CO)[C@@H](O)[C@H]2O)c(=O)[nH]1 [6-Azauridine, 6-azauridine, reference compound]
EC50 [3, 9]: 300 ± 10 nM | EC50 [3, 10]: 8900 ± 3400 nM | Fold resistance [3, 11]: 4 | EC50 [3, 12]: 900 ± 100 nM | Fold resistance ([3]; rCHIKV nsP1-G230R + nsP1-K299E): 4 | EC50 [3, 13]: 1100 ± 100 nM | Fold resistance ([3]; rCHIKV nsP1-R171Q): 3 | EC50 [3, 14]: 800 ± 100 nM

COc1c(C)c2c(c(O)c1C/C=C(\C)CCC(=O)O)C(=O)OC2 [Mycophenolic acid, mycophenolic acid, reference compound]
EC50 [3, 9]: 400 ± 10 nM | EC50 [3, 10]: 6300 ± 11400 nM | Fold resistance [3, 11]: 1 | EC50 [3, 12]: 500 ± 30 nM | Fold resistance ([3]; rCHIKV nsP1-G230R + nsP1-K299E): 3 | EC50 [3, 13]: 1100 ± 500 nM | Fold resistance ([3]; rCHIKV nsP1-R171Q): 11 | EC50 [3, 14]: 4200 ± 2800 nM

CCc1nc2c(nnn2-c2cccc(OC(C)C)c2)c(=O)[nH]1 [MADTP-372, reference compound]
Effect on formation of m7GMP-nsP1 intermediate (control compound) ([1]; 50 μM, 5 or 10 μM SAM): clearly inhibited the reaction

6′-β-fluoro-homoaristeromycin [FHA]
Protection against SINV infection [4]: did not confer protection | Resistance of rCHIKV G230R+K299E to the compound ([3]; rCHIKV G230R+K299E): resistant | SI (CHIKV) ([5]; CC50/EC50): >1,000 | EC50 ([5]; read-out: EC50 (CHIKV), VeroE6 cells, MOI 0.005, MTS at 96 hpi, mean ± SD): 120 ± 40 nM | SI (SFV) ([6]; CC50/EC50): >64 | EC50 ([6]; read-out: EC50 (SFV), VeroE6 cells, MOI 0.025, MTS at 40 hpi, mean ± SD): 3.9 ± 3.5 µM | CC50 ([7]; read-out: CC50 (CHIKV assay), CHIKV assay format): > 250 µM | CC50 ([7]; read-out: CC50 (SFV assay), SFV assay format): > 250 µM | CC50 ([7]; read-out: CC50 (SINV assay), SINV assay format): > 250 µM | IC50 [8]: 370 nM
